Like-named read-outs stand apart in the source and are kept apart here.
Columns and labels:
[1] = Pharmacokinetic study in female mice (plasma, liver, bone); type: in vivo, female C57/BL6 mice
From the text: FIG. 24A depicts the plasma profile. FIG. 24B depicts the liver profile and FIG. 24C depicts the bone profiles. The actual concentration (ng/g) is the detected value (ng/mL) multiplied by 4. […] 40% HP-b-CD-75% PEG300. Three mice were used per time point. Results are expressed as the mean SEM.
2-hydroxypropyl-beta-cyclodextrin (HPBCD).
FIG. 24A depicts the plasma profile. FIG. 24B depicts the liver profile and FIG. 24C depicts the bone profiles. The actual concentration (ng/g) is the detected value (ng/mL) multiplied by 4. […] 40% HP-b-CD-75% PEG300. Three mice were used per time point. Results are expressed as the mean±SEM.

[2] = tested on: chimera RXFP1-2 (extracellular domain of RXFP1, transmembrane domain of RXFP2); assay: HTRF cAMP assay in HEK293T cells transiently transfected with chimera RXFP1-2; type: cell-based, human
From the text: (§1) To further investigate the involvement of the RXFP2 extracellular and transmembrane domains in agonist activation of the receptor, two complementary chimeras were created using the RXFP1 receptor, which is not activated by the agonists of formula (I), to transiently transfect HEK293T cells and measured changes in cAMP induction using the HTRF assay.
(§2) Chimeric receptors were generated by IN-FUSION™ (Takara Bio USA, Inc., San Jose, CA) mutagenesis using full-length human RXFP1 and RXFP2 receptor constructs. Polymerase chain reaction (PCR) was performed using PfuTurbo high-fidelity DNA polymerase (Agilent Technologies, Santa Clara, CA) and overlapping primers with at least 15 bp sequence homology within the fusion site. PCR products were digested with Dpnl restricton enzyme at 37° C. overnight, run on a 0.8% agarose gel and purified using the GENEJET™ Gel extraction kit (Thermo Scientific, Waltham, MA). The purified DNA fragments were then ligated into the BamHI and XhoI pre-digested pcDNA3.1™/Zeo(+) AmpR mammalian expression vector using the In-Fusion HD enzyme premix (Clontech, Mountain View, CA) at 50° C. for 15 minutes, and the resulting product was used to transform Stellar competent cells (Takara Bio USA, Inc., San Jose, CA). The clones were fully sequenced to confirm the correct fusion of both receptor fragments. Chimera RXFP2-1 contained the extracellular domain of RXFP2 and the transmembrane domain of RXFP1. Accordingly, chimera RXFP1-2 contained the extracellular domain of RXFP1 and the transmembrane domain of RXFP2.
(§3) HEK293T cells were seeded in 6-well flat-bottom clear plates at 0.5 million cells/well in 2 mL/well of growth medium (DMEM, 10% FBS, 1× Pen/Strep) and allowed to attach overnight at 37° C. and 5% CO2. The next morning, cells were transfected with 2 μg of plasmid (chimeric receptors, WT RXFP2, or WT RXFP1) and 6 μl of Lipofectamine2000 (Invitrogen, Waltham, MA) in a total volume of 200 μl/well OPTI-MEM™ I (Thermo Fisher, Waltham, MA) reduced serum medium and allowed to incubate an additional 24 hours. The next day, transfected cells were seeded in 96-well flat-bottom opaque plates at 30,000 cells/well in 60 μL/well of serum-free DMEM medium and allowed to attach overnight at 37° C. at 5% CO2. The next morning, cells were treated with 1 μL/well of compound (25 μM-0.25 nM), 2 μM forskolin, or DMSO vehicle. Cells were also treated with 4 μL of positive control INSL3 (100-0.01 nM), Relaxin2 (100-10 nM), or vehicle (serum-free DMEM+IBMX). Plates were incubated for 1 hour at 37° C. and 5% CO2, after which kit cAMP-d2 and anti-cAMP antibody were added as previously described. Cells were incubated for 1 hour at room temperature, and then the signal was read on a CLARIOstar plate reader (BMG Labtech, Germany).

[3] = biological target: T1, chimera RXFP1-2 (extracellular domain of RXFP1, transmembrane domain of RXFP2) (Homo sapiens, UniProt Q8WXD0); assay: as above; type: cell-based; details: RXFP1-2 chimera
T1 construct: other: RXFP1-2 chimera; Emax; normalized to 2 μM forskolin cAMP response as 100% activity; fused on or other part: FLAG tag; The RXFP1 extracellular domain is the N-terminal part of the chimera and the RXFP2 transmembrane domain is the C-terminal part; Q9HBX9 (Relaxin receptor 1)
T1 sequence (Q8WXD0 417-754 limits assumed, change not shown): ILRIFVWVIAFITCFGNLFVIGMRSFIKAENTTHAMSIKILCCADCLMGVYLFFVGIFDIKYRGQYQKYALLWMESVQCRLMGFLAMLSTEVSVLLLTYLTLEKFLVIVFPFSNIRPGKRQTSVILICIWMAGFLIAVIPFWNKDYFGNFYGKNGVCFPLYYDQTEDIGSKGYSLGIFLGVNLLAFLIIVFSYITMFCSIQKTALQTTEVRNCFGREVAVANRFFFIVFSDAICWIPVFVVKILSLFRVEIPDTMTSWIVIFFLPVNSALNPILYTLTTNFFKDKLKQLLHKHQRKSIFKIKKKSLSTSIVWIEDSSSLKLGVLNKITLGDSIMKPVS
From the text: as §1, §2, §3

[4] = bone, PO 10 mg/kg, one administration
[5] = liver, PO 10 mg/kg, one administration
[6] = plasma, PO 10 mg/kg, one administration

SMILES: O=C1Nc2ccc(-c3cc(C(F)(F)F)cc(C(F)(F)F)c3)cc2C(=O)N2CCN(C(=O)COc3ccc(OC(F)(F)F)cc3I)C[C@@H]12 [Example 187, (S)-8-(3,5-bis(trifluoromethyl)phenyl)-2-(2-(2-iodo-4-(trifluoromethoxy)phenoxy)acetyl)-1,3,4,12a-tetrahydrobenzo[e]pyrazino[1,2-a][1,4]diazepine-6,12 (2H, 11H)-dione]
- Maximum serum concentration ([1]; Table 10, IV 3 mg/kg): 3.25 µg/mL
- AUCInf ([1]; bone, IV 3 mg/kg): 3687 ng·h/g
- AUClast ([1]; bone, IV 3 mg/kg): 3650 ng·h/g
- AUCInf [1, 4]: 2190 ng·h/g
- AUClast [1, 4]: 1897 ng·h/g
- AUCInf ([1]; bone, PO (QD*3) 10 mg/kg): 2573 ng·h/g
- AUClast ([1]; bone, PO (QD*3) 10 mg/kg): 2539 ng·h/g
- Cmax ([1]; female, C57/BL6, mouse, bone, iv, 3 mg/kg, IV 3 mg/kg): 1070 ng/g
- Cmax ([1]; female, C57/BL6, mouse, bone, po, 10 mg/kg, PO 10 mg/kg, one administration): 174 ng/g
- Cmax ([1]; female, C57/BL6, mouse, bone, po, 10 mg/kg, PO (QD*3) 10 mg/kg): 298 ng/g
- Kp ([1]; female, C57/BL6, mouse, bone/plasma, iv, 3 mg/kg, IV 3 mg/kg, read-out: AUClast Ratio (Bone/Plasma)): 1.14
- Kp ([1]; female, C57/BL6, mouse, bone/plasma, iv, 3 mg/kg, IV 3 mg/kg, read-out: Cmax Ratio (Bone/Plasma)): 0.419
- Kp ([1]; female, C57/BL6, mouse, bone/plasma, po, 10 mg/kg, PO 10 mg/kg, one administration, read-out: AUClast Ratio (Bone/Plasma)): 0.725
- Kp ([1]; female, C57/BL6, mouse, bone/plasma, po, 10 mg/kg, PO 10 mg/kg, one administration, read-out: Cmax Ratio (Bone/Plasma)): 0.475
- Kp ([1]; female, C57/BL6, mouse, bone/plasma, po, 10 mg/kg, PO (QD*3) 10 mg/kg, read-out: AUClast Ratio (Bone/Plasma)): 0.779
- Kp ([1]; female, C57/BL6, mouse, bone/plasma, po, 10 mg/kg, PO (QD*3) 10 mg/kg, read-out: Cmax Ratio (Bone/Plasma)): 0.766
- Cmax ([1]; female, C57/BL6, mouse, liver, iv, 3 mg/kg, IV 3 mg/kg): 28000 ng/g
- Cmax ([1]; female, C57/BL6, mouse, liver, po, 10 mg/kg, PO 10 mg/kg, one administration): 3210 ng/g
- Cmax ([1]; female, C57/BL6, mouse, liver, po, 10 mg/kg, PO (QD*3) 10 mg/kg): 3570 ng/g
- Kp ([1]; female, C57/BL6, mouse, liver/plasma, iv, 3 mg/kg, IV 3 mg/kg, read-out: AUClast Ratio (Liver/Plasma)): 8.3
- Kp ([1]; female, C57/BL6, mouse, liver/plasma, iv, 3 mg/kg, IV 3 mg/kg, read-out: Cmax Ratio (Liver/Plasma)): 10.9
- Kp ([1]; female, C57/BL6, mouse, liver/plasma, po, 10 mg/kg, PO 10 mg/kg, one administration, read-out: AUClast Ratio (Liver/Plasma)): 9.23
- Kp ([1]; female, C57/BL6, mouse, liver/plasma, po, 10 mg/kg, PO 10 mg/kg, one administration, read-out: Cmax Ratio (Liver/Plasma)): 8.78
- Kp ([1]; female, C57/BL6, mouse, liver/plasma, po, 10 mg/kg, PO (QD*3) 10 mg/kg, read-out: AUClast Ratio (Liver/Plasma)): 7.64
- Kp ([1]; female, C57/BL6, mouse, liver/plasma, po, 10 mg/kg, PO (QD*3) 10 mg/kg, read-out: Cmax Ratio (Liver/Plasma)): 9.18
- AUC(0-inf) ([1]; female, C57/BL6, mouse, plasma, iv, 3 mg/kg, Table 10, IV 3 mg/kg, read-out: Area under the curve-AUCinf): 3200 ng·h/mL
- AUC(0-t) ([1]; female, C57/BL6, mouse, plasma, iv, 3 mg/kg, Table 10, IV 3 mg/kg, read-out: Area under the curve-AUClast): 3190 ng·h/mL
- C0 ([1]; female, C57/BL6, mouse, plasma, iv, 3 mg/kg, Table 10, IV 3 mg/kg, read-out: Concentration-C0): 3590 ng/mL
- half-life ([1]; female, C57/BL6, mouse, plasma, iv, 3 mg/kg, Table 10, IV 3 mg/kg, read-out: Half life-t1/2 (converted)): 6.56 h
- AUC(0-inf) ([1]; female, C57/BL6, mouse, plasma, iv, 3 mg/kg, plasma, IV 3 mg/kg, read-out: AUCInf): 3200 ng·h/mL
- AUC(0-t) ([1]; female, C57/BL6, mouse, plasma, iv, 3 mg/kg, plasma, IV 3 mg/kg, read-out: AUClast): 3190 ng·h/mL
- C0 ([1]; female, C57/BL6, mouse, plasma, iv, 3 mg/kg, plasma, IV 3 mg/kg, read-out: C0): 3590 ng/mL
- half-life ([1]; female, C57/BL6, mouse, plasma, iv, 3 mg/kg, plasma, IV 3 mg/kg, read-out: t1/2 (converted)): 6.56 h
- AUC(0-inf) ([1]; female, C57/BL6, mouse, plasma, po, 10 mg/kg, Table 10, POA single 10 mg/kg, read-out: Area under the curve-AUCinf): 2650 ng·h/mL
- AUC(0-t) ([1]; female, C57/BL6, mouse, plasma, po, 10 mg/kg, Table 10, POA single 10 mg/kg, read-out: Area under the curve-AUClast): 2620 ng·h/mL
- half-life ([1]; female, C57/BL6, mouse, plasma, po, 10 mg/kg, Table 10, POA single 10 mg/kg, read-out: Half life-t1/2 (converted)): 3.89 h
- AUC(0-inf) ([1]; female, C57/BL6, mouse, plasma, po, 10 mg/kg, Table 10, POB QD × 3, 10 mg/kg, read-out: Area under the curve-AUCinf): 3270 ng·h/mL
- AUC(0-t) ([1]; female, C57/BL6, mouse, plasma, po, 10 mg/kg, Table 10, POB QD × 3, 10 mg/kg, read-out: Area under the curve-AUClast): 3260 ng·h/mL
- half-life ([1]; female, C57/BL6, mouse, plasma, po, 10 mg/kg, Table 10, POB QD × 3, 10 mg/kg, read-out: Half life-t1/2 (converted)): 5.88 h
- AUC(0-inf) ([1]; female, C57/BL6, mouse, plasma, po, 10 mg/kg, plasma, PO 10 mg/kg, one administration, read-out: AUCInf): 2650 ng·h/mL
- AUC(0-t) ([1]; female, C57/BL6, mouse, plasma, po, 10 mg/kg, plasma, PO 10 mg/kg, one administration, read-out: AUClast): 2620 ng·h/mL
- C0 ([1]; female, C57/BL6, mouse, plasma, po, 10 mg/kg, plasma, PO 10 mg/kg, one administration, read-out: C0): 366 ng/mL
- half-life ([1]; female, C57/BL6, mouse, plasma, po, 10 mg/kg, plasma, PO 10 mg/kg, one administration, read-out: t1/2 (converted)): 3.89 h
- AUC(0-inf) ([1]; female, C57/BL6, mouse, plasma, po, 10 mg/kg, plasma, PO (QD*3) 10 mg/kg, read-out: AUCInf): 3270 ng·h/mL
- AUC(0-t) ([1]; female, C57/BL6, mouse, plasma, po, 10 mg/kg, plasma, PO (QD*3) 10 mg/kg, read-out: AUClast): 3260 ng·h/mL
- C0 ([1]; female, C57/BL6, mouse, plasma, po, 10 mg/kg, plasma, PO (QD*3) 10 mg/kg, read-out: C0): 389 ng/mL
- half-life ([1]; female, C57/BL6, mouse, plasma, po, 10 mg/kg, plasma, PO (QD*3) 10 mg/kg, read-out: t1/2 (converted)): 5.88 h
- bioavailability ([1]; female, C57/BL6, mouse, plasma, po, Table 10, POA single 10 mg/kg, read-out: Bioavailability-F): 24.8%
- MRT last ([1]; female, C57/BL6, mouse, plasma, Table 10, IV 3 mg/kg, read-out: Mean residence time-MRTlast): 3.47 h
- clearance ([1]; female, C57/BL6, mouse, plasma, Table 10, IV 3 mg/kg, read-out: Total clearance after IV administration-CLobs): 15.6 mL/min/kg
- Vd ([1]; female, C57/BL6, mouse, plasma, Table 10, IV 3 mg/kg, read-out: Volume of distribution in steady state-VSSobs): 3.38 L/kg
- Tmax ([1]; female, C57/BL6, mouse, bone, IV 3 mg/kg): 0.083 h
- Tmax ([1]; female, C57/BL6, mouse, bone, PO 10 mg/kg, one administration): 3 h
- Tmax ([1]; female, C57/BL6, mouse, liver, IV 3 mg/kg): 0.083 h
- Tmax ([1]; female, C57/BL6, mouse, liver, PO 10 mg/kg, one administration): 1 h
- MRT ([1]; female, C57/BL6, mouse, plasma, IV 3 mg/kg): 3.47 h
- Tmax ([1]; female, C57/BL6, mouse, plasma, PO 10 mg/kg, one administration): 1 h
- AUCInf ([1]; liver, IV 3 mg/kg): 26524 ng·h/g
- AUClast ([1]; liver, IV 3 mg/kg): 26492 ng·h/g
- AUCInf [1, 5]: 24170 ng·h/g
- AUClast [1, 5]: 24146 ng·h/g
- AUCInf ([1]; liver, PO (QD*3) 10 mg/kg): 24965 ng·h/g
- AUClast ([1]; liver, PO (QD*3) 10 mg/kg): 24927 ng·h/g
- AUC_%Extrap ([1]; plasma, IV 3 mg/kg): 0.258%
- Cl_obs ([1]; plasma, IV 3 mg/kg): 15.6 mL/min/kg
- Vss_obs ([1]; plasma, IV 3 mg/kg): 3.38 L/kg
- AUC_%Extrap [1, 6]: 1.20%
- F [1, 6]: 24.8%
- AUC_%Extrap ([1]; plasma, PO (QD*3) 10 mg/kg): 0.265%
- cAMP response of chimera RXFP1-2 [2]: levels comparable to WT RXFP2
- Emax ([3]; HEK-293T, normalized to 2 μM forskolin cAMP response as 100% activity): 96.47 ± 0.43%
- EC50 ([3]; read-out: EC50 (μM or nM)): 0.016 ± 0.002 µM
